Experimental data from patent US20080242590A1, “New Method 706” (ASTRAZENECA AB, priority 2007, published 2008).

How the values were obtained:
Type in all cases: biochemical
amyloid β 1-40 peptide = test: Degradation of amyloid β 1-40 peptide by Fc-Neprilysin and Neprilysin in buffer; conditions: 10 μM Phosphoramidone
Protocol: The assay is measuring the remaining amyloid β 1-40 peptide (Bachem) concentration following its incubation in the presence of Neprilysin (R&D Systems) or Fc-Neprilysin with or without Neprilysin inhibitor. 100 μl of reaction mixture containing amyloid β 1-40 peptide (final concentrations, 300, 30 or 3 nM) and/or Neprilysin (2.4 μg/ml), and/or Fc-Neprilysin construct (2.4 μg/ml), and/or Phosphoramidone (10 μM) was incubated in a round bottom 96-well polypropylene plate at 37° C. for 2.5 hours. Following incubation, 10 μl of reaction mixture was transferred into Thermo-Fast© 96-well PCR plate (Abgene, UK) containing 10 μl of Standard Diluent (Gyros AB). Amyloid β 1-40 concentration was determined using Gyrolab Workstation LIF system. Biotinylated anti-amyloid β antibodies (6E10; final concentration 50 μg/ml; Signet) were used as capturing antibodies and polyclonal anti-human amyloid β antibodies (44-348; Biosource) labeled with Alexa Fluor 647 dye (Molecular probes) were used as detection antibodies. […] Amyloid β 1-40 peptide degradation by Neprilysin was calculated as a percentage of Amyloid β 1-40 peptide left after incubation in the presence of Neprilysin compared to the amyloid β 1-40 peptide concentration in the absence of Neprilysin.

[1] = tested on: amyloid β peptide 1-42 (Aβ42); test: Ex-vivo degradation of Aβ42 in guinea pig plasma; conditions: 10 μM, combined with 208 μg/ml His-Fc-Nep
Protocol: (§1) Degradation of amyloid β peptide 1-40 (Aβ40) and amyloid β peptide 1-42 (Aβ42) by neprilysin was investigated using heparinized plasma from male Dunkin Hartley guinea pigs, weighing 250-300 g (HBLidkoping ka). Blood was withdrawn from anaesthetized guinea pigs by heart puncture. The blood were collected into prechilled heparin-plasma tubes and centrifuged for 10 min at 4° C. at 3000×g within 20 minutes of sampling. Plasma samples were transferred to pre-chilled polypropylene tubes and immediately frozen on dry ice and stored at −70° C. prior to use. The experiments were performed on a pool of plasma from seven guinea pigs. His-Fc-Nep (6 μg/ml or 208 μg/ml) or 5 μg/ml recombinant human Neprilysin (R&D systems) with corresponding vehicles (50 mM Tris-HCl, 150 mM NaCl pH 7.5 or 25 mM Tris-HCl, 0.1 M NaCl pH 8.0) were incubated with a pool of plasma in presence or absence of 10 μM phosphoramidon (BIOMOL) at 37° C. for 0 and 4 h. A final concentration of 4.7 mM EDTA was added into the tubes before the amount of Aβ40 and Aβ42 was analysed using a commercial ELISA kit obtained from Biosource (Aβ1-40) or Innogenetics (Aβ1-42).

[2] = tested on: amyloid β peptide 1-40 (Aβ40); test: Ex-vivo degradation of Aβ40 in guinea pig plasma; conditions: 10 μM phosphoramidon
Protocol: as §1

[3] = tested on: amyloid β peptide 1-40 (Aβ40); test: Degradation of Aβ40 in human plasma (Example 18); conditions: 10 μM phosphoramidon
Protocol: Blood from eight individuals (5 females and 3 males) were collected into pre-chilled heparin-plasma tubes at the healthcare centre (AstraZeneca) at two different time points. Plasma was prepared by centrifugation for 20 min at 4° C. at 2500×g within 30 minutes of sampling. Plasma samples were transferred to pre-chilled polypropylene tubes and immediately frozen and stored at −70° C. prior to use. His-Fc-Nep (6 μg/ml) or 5 μg/ml recombinant human Neprilysin (R&D systems) with corresponding vehicles (50 mM Tris-HCl, 150 mM NaCl pH 7.5 or 25 mM Tris-HCl, 0.1 M NaCl pH 8.0) in presence or absence of 10 μM phosphoramidon was incubated with a pool of plasma at 37° C. for 0 and 4 h. A final concentration of 4.7 mM EDTA was added into the tubes before the amount of Aβ40 was analysed using a commercial ELISA kit obtained from Biosource. His-Fc-Nep (6 μg/ml) and commercial human recombinant neprilysin (5 μg/ml) degraded Aβ40 with 33% and 70%, respectively, compared to vehicle after 4 hours incubation at 37° C. The Aβ40 levels were unaffected after addition of 10 μM phosphoramidon (FIG. 4).

Aβ40 levels after addition of inhibitor to the enzyme incubation [2]: unaffected | Aβ40 levels after addition of inhibitor to the enzyme incubation [3]: unaffected
Structure (SMILES): CC(C)C[C@H](NP(=O)(O)O[C@@H]1O[C@@H](C)[C@H](O)[C@@H](O)[C@H]1O)C(=O)N[C@@H](Cc1c[nH]c2ccccc12)C(=O)O [Phosphoramidone, reference compound]
Specific Neprilysin activity in the presence of inhibitor (amyloid β 1-40 peptide): almost completely abolished | Inhibition of the Aβ42 reduction by phosphoramidon [1]: not inhibited
